From patent publication US9029389B2 (Institut Pasteur Korea, priority 2011, dated 2015)

Biological target: T1, Human 5-lipoxygenase (Homo sapiens, UniProt P09917)
T1 construct: purchased Cayman 60402; host or cells: insect cells
T1 sequence (P09917 1-674): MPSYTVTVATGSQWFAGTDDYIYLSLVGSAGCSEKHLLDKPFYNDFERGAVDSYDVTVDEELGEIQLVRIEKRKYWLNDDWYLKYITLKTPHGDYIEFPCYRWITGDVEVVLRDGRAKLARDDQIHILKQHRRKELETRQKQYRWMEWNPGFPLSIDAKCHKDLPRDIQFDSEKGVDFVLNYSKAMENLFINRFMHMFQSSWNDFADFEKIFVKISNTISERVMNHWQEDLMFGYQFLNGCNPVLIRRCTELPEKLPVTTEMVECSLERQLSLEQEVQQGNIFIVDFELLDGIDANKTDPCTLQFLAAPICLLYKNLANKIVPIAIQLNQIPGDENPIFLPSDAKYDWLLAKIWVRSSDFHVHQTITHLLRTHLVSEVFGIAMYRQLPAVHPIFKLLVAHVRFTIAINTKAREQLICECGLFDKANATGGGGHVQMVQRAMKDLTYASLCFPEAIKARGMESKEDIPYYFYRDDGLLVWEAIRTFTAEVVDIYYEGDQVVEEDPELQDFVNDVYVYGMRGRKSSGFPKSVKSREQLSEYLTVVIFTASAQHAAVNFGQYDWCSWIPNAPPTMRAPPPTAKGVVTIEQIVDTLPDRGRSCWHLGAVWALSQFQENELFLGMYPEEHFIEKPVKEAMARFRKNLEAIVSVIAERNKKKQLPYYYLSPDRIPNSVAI
Experiment: Activity of compounds against 5-LO enzyme (LTB4 measurement and/or fluorescence method)
Assay type: biochemical
Conditions: for inhibition at 10 µM: 5-LO, single concentration of 10 uM in duplicate; for IC50: 6 or 11 point dose response in duplicate
Procedure, shortened: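 Two read-outs: LTB4 measured by EIA and/or LC/MS/MS with LTB4-d4 standard after 15 min RT compound preincubation with insect-cell 5-LO and a 5 min 37 °C reaction on 3 uM arachidonic acid (0.1 mM ATP, pH 7.4). The room-temperature fluorescence format used 20 uM H2DCFDA, 100 uM ATP, 3 uM arachidonic acid, 5 min; IC50 from 6/11-point curves.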

inhibition at 10 µM [%] | IC50 [µM] | SMILES
40 to 69 | – | CCc1nc2ccc(Cl)cn2c1C(=O)NCc1ccn(-c2ccc(OC(F)(F)F)cc2)n1 [compound 132, 6-Chloro-2-ethyl-N-((1-(4-(trifluoromethoxy)phenyl)-1H-pyrazol-3-yl)methyl)imidazo[1,2-a]pyridine-3-carboxamide]
< 40 | – | CCOC(=O)c1c(C)nc2ccccn12 [compound 1, Ethyl 2-methylimidazo[1,2-a]pyridine-3-carboxylate]
> 69 | > 20 | CCc1nc2c(Br)cccn2c1C(=O)NCc1ccc(N2CCN(c3ccc(F)cc3)CC2)cc1 [compound 260, 8-Bromo-2-ethyl-N-(4-(4-(4-fluorophenyl)piperazin-1-yl)benzyl)imidazo[1,2-a]pyridine-3-carboxamide]
40 to 69 | – | CCc1nc2cc(Cl)ccn2c1NC(=O)Cc1ccc(-c2ccccc2)cc1 [compound 116, 2-(Biphenyl-4-yl)-N-(7-chloro-2-ethylimidazo[1,2-a]pyridin-3-yl)acetamide]
40 to 69 | – | CCc1nc2ccc(Cl)cn2c1CNc1ccc(OC(F)(F)F)cc1 [compound 144, N-((6-Chloro-2-ethylimidazo[1,2-a]pyridin-3-yl)methyl)-4-(trifluoromethoxy)aniline]
< 40 | – | CCc1nc2ccc(Cl)cn2c1C(=O)N1CCC(OCc2ccc(Cl)cc2)CC1 [compound 332, (6-chloro-2-ethylimidazo[1,2-a]pyridin-3-yl)(4-((4-chlorobenzyl)oxy)piperidin-1-yl)methanone]
> 69 | 1 to 20 | CCc1nc2ccc(Cl)cn2c1C(=O)N(C)Cc1ccc(Oc2ccc(F)cc2)cc1 [compound 164, 6-Chloro-2-ethyl-N-(4-(4-fluorophenoxy)benzyl)-N-methylimidazo[1,2-a]pyridine-3-carboxamide]
40 to 69 | – | CCc1nc2ccc(Cl)cn2c1C(=O)NCc1ccc(-c2ccccc2C(F)(F)F)cc1 [compound 98, 6-Chloro-2-ethyl-N-((2′-(trifluoromethyl)biphenyl-4-yl)methyl)imidazo[1,2-a]pyridine-3-carboxamide]
< 40 | – | Cc1nc2c(C(F)(F)F)cccn2c1C(=O)NCc1ccccc1 [compound 36, N-Benzyl-2-methyl-8-(trifluoromethyl)imidazo[1,2-a]pyridine-3-carboxamide]
< 40 | – | Cc1nc2cc(Cl)ccn2c1C(=O)NCc1ccccc1 [compound 16, N-Benzyl-7-chloro-2-methylimidazo[1,2-a]pyridine-3-carboxamide]
< 40 | – | CCc1nc2ccc(Cl)cn2c1C(=O)NCc1ccc(OC(C)C)cc1 [compound 65]
40 to 69 | 1 to 20 | CCc1nc2ccc(Cl)cn2c1C(=O)NCc1ccc(N2CCN(c3ccc(F)cc3)CC2)cc1 [compound 148, 6-Chloro-2-ethyl-N-(4-(4-(4-fluorophenyl)piperazin-1-yl)benzyl)imidazo[1,2-a]pyridine-3-carboxamide]
< 40 | – | COC(=O)[C@H](Cc1ccccc1)NC(=O)c1c(C)nc2ccccn12 [compound 23, (S)-Methyl 2-(2-methylimidazo[1,2-a]pyridine-3-carboxamido)-3-phenylpropanoate]
< 40 | – | CCc1nc2ccc(Cl)cn2c1C(=O)NCc1ccc(N2CCC(C(=O)c3ccc(F)cc3)CC2)cc1 [compound 323, 6-chloro-2-ethyl-N-(4-(4-(4-fluorobenzoyl)piperidin-1-yl)benzyl)imidazo[1,2-a]pyridine-3-carboxamide]
< 40 | – | CCc1nc2ccc(Cl)cn2c1C(=O)NCc1ccc(N2CCC(OCc3ccccc3)CC2)cc1 [compound 317, N-(4-(4-(benzyloxy)piperidin-1-yl)benzyl)-6-chloro-2-ethylimidazo[1,2-a]pyridine-3-carboxamide]
40 to 69 | – | CCc1nc2cc(Cl)ccn2c1C(=O)NCc1ccc(-c2ccc(C=O)cc2)cc1 [compound 287, 7-Chloro-2-ethyl-N-((4′-formylbiphenyl-4-yl)methyl)imidazo[1,2-a]pyridine-3-carboxamide]
< 40 | – | CCc1nc2ccc(Cl)cn2c1C(=O)NCc1ccc(-c2ccc(C)cc2)cc1 [compound 77, 6-Chloro-2-ethyl-N-((4′-methylbiphenyl-4-yl)methyl)imidazo[1,2-a]pyridine-3-carboxamide]

inhibition at 10 µM [%] | IC50 [µM] | SMILES
40 to 69 | – | CCc1nc2cc(Cl)ccn2c1C(=O)NCc1ccc(Cl)cc1 [compound 84, 7-Chloro-N-(4-chlorobenzyl)-2-ethylimidazo[1,2-a]pyridine-3-carboxamide]
< 40 | – | COC(=O)c1ccc(CNC(=O)c2c(C)nc3ccccn23)cc1 [compound 25, Methyl 4-((2-methylimidazo[1,2-a]pyridine-3-carboxamido)methyl)benzoate]
< 40 | – | CCc1nc2ccc(Cl)cn2c1CNCc1ccc(N2CCC3(CC2)OCCO3)cc1 [compound 346, N-(4-(1,4-dioxa-8-azaspiro[4.5]decan-8-yl)benzyl)-1-(6-chloro-2-ethylimidazo[1,2-a]pyridin-3-yl)methanamine]
40 to 69 | – | CCc1nc2cc(Cl)ccn2c1C(=O)NCc1ccc(N2CCC(Oc3ccc(C(F)(F)F)cc3)CC2)cc1 [compound 169, 7-Chloro-2-ethyl-N-(4-(4-(4-(trifluoromethyl)phenoxy)piperidin-1-yl)benzyl)imidazo[1,2-a]pyridine-3-carboxamide]
> 69 | 1 to 20 | CCc1nc2cc(Cl)ccn2c1C(=O)NCc1ccc(Nc2ccc(OC(F)(F)F)cc2)cc1 [compound 175, 7-Chloro-2-ethyl-N-(4-(4-(trifluoromethoxy)phenylamino)benzyl)imidazo[1,2-a]pyridine-3-carboxamide]
< 40 | – | CCc1nc2ccc(Cl)cn2c1C(=O)N1CCC(OCc2ccccc2F)CC1 [compound 337, (6-chloro-2-ethylimidazo[1,2-a]pyridin-3-yl)(4-((2-fluorobenzyl)oxy)piperidin-1-yl)methanone]
40 to 69 | – | CCc1nc2cc(Cl)ccn2c1C(=O)NCc1ccc(-c2ccccc2C(F)(F)F)cc1 [compound 102, 7-Chloro-2-ethyl-N-((2′-(trifluoromethyl)biphenyl-4-yl)methyl)imidazo[1,2-a]pyridine-3-carboxamide]
< 40 | – | CCc1nc2ccc(Cl)cn2c1C(=O)NCc1ccc(N2CCC(C(=O)Cc3ccc(F)cc3)CC2)cc1 [compound 325, 6-chloro-2-ethyl-N-(4-(4-(2-(4-fluorophenyl)acetyl)piperidin-1-yl)benzyl)imidazo[1,2-a]pyridine-3-carboxamide]
40 to 69 | – | CCc1nc2ccc(Cl)cn2c1C(=O)NCc1ccc(N2CCC(Oc3ccc(C(F)(F)F)cc3)CC2)cc1 [compound 168, 6-Chloro-2-ethyl-N-(4-(4-(4-(trifluoromethyl)phenoxy)piperidin-1-yl)benzyl)imidazo[1,2-a]pyridine-3-carboxamide]
< 40 | – | CCc1nc2ccccn2c1C(=O)NCc1ccc(CC2CCOCC2)cc1 [compound 357, 2-ethyl-N-(4-((tetrahydro-2H-pyran-4-yl)methyl)benzyl)imidazo[1,2-a]pyridine-3-carboxamide]
< 40 | – | Cc1nc2cc(-c3ccccc3)ccn2c1C(=O)O [compound 19, 2-Methyl-7-phenylimidazo[1,2-a]pyridine-3-carboxylic acid]
40 to 69 | – | CCc1nc2ccc(Cl)cn2c1C(=O)NCc1ccc(N2CCC(Oc3ccc(Cl)cc3)CC2)cc1 [compound 166, 6-Chloro-N-(4-(4-(4-chlorophenoxy)piperidin-1-yl)benzyl)-2-ethylimidazo[1,2-a]pyridine-3-carboxamide]
< 40 | – | CCc1nc2cc(Cl)c(Cl)cn2c1C(=O)NCc1ccc(OC(F)(F)F)cc1 [compound 178, 6,7-Dichloro-2-ethyl-N-(4-(trifluoromethoxy)benzyl)imidazo[1,2-a]pyridine-3-carboxamide]
– | > 20 | CCc1nc2cccnn2c1C(=O)N1CCC(OCc2ccc(OC(F)(F)F)cc2)CC1 [compound 387, (2-Ethylimidazo[1,2-b]pyridazin-3-yl)(4-((4-(trifluoromethoxy)benzyl)oxy)piperidin-1-yl)methanone]
< 40 | – | CCc1nc2ccc(Cl)cn2c1C(=O)NCc1ccn(-c2ccc(F)cc2)n1 [compound 153, 6-Chloro-2-ethyl-N-((1-(4-fluorophenyl)-1H-pyrazol-3-yl)methyl)imidazo[1,2-a]pyridine-3-carboxamide]
40 to 69 | – | CCc1nc2ccc([N+](=O)[O-])cn2c1C(=O)NCc1ccc(OC(F)(F)F)cc1 [compound 69, 2-Ethyl-6-nitro-N-(4-(trifluoromethoxy)benzyl)imidazo[1,2-a]pyridine-3-carboxamide]
